Test results published in patent US20260151354A1, “SOLID DISPERSION OF CURCUMIN DERIVATIVE METHOD FOR PREPARING SAME, AND USE THEREOF” (WENZHOU MEDICAL UNIVERSITY, priority 2022, published 2026).
Read-outs that look alike come from different tables or passages of the source.

Experiments:
[1] = Solubility of C66 in solvents (Table 1); type: physicochemical
in vivo = conditions: male, Beagle, dog
Protocol: (§3) 6 male Beagle dogs (with a weight of 8.00-8.62 kg per dog) that passed the quarantine were selected and divided into 2 groups by weight according to a completely random method, that is, oral administration group, and intravenous injection group, with 3 dogs in each group, and single gavage administration were given. The dogs were subjected to fasting but not water deprivation 12 hours before administration, and were provided with food 4 hours after administration, with free access to water. For the oral administration group, 1% sodium carboxymethyl cellulose (CMC-Na) was mixed with C66 substance to prepare a 0.6 mg/mL suspension for gavage. For the intravenous injection group, a required amount of C66 substance was weighed and dissolved in a solution containing 5% DMSO+10% polyethylene glycol-15 hydroxystearate+85% (20% 2-hydroxypropyl-β-cyclodextrin) to prepare a 1 mg/mL clear solution. Blood samples were collected at different time points after administration, and a concentration of C66 in the blood samples were detected by a liquid chromatograph mass spectrometer to obtain a drug concentration-time curve.
(§4) Plasma samples were analyzed using an AB Sciex 5500 (LC-MS/MS) with an electrospray ionization source (ESI), and monitored with a multiple reaction monitoring (MRM) scanning method in a positive ion mode. A gradient elution was performed with 0.1% formic acid aqueous solution-acetonitrile as a mobile phase. Unknown samples were subjected to protein precipitation using methanol before injection, with a flow rate of 0.3 mL/min. Chromatographic column: Kinetex® 1.7 μm, XB-C18 2.1*100 mm. Guard column: Phenomenex UHPLC C18 2.1 mm. A linear range of C66 was 1.000-288.0 ng/ml, with a lower limit of quantitation of 1.000 ng/mL.
(§5) The dogs were subjected to fasting but not water deprivation 12 hours before administration, and were provided with food 4 hours after administration, with free access to water.
(§6) For the oral administration groups, the blood collection time points were before administration and 15 min, 30 min, 45 min, 1 hour, 2 hours, 3 hours, 4 hours, 6 hours, 8 hours, 10 hours and 24 hours after administration, and 0.5-1.0 mL of blood were collected from a small saphenous vein outside a hind limb or a cephalic vein inside a forelimb, and placed into a heparin sodium anticoagulation tube. For the Intravenous injection group, the blood collection time points were before administration and 5 min, 15 min, 30 min, 45 min, 1 hour, 2 hours, 3 hours, 4 hours, 8 hours, 10 hours and 24 hours after administration, and 0.5-1.0 mL of blood were collected from a small saphenous vein outside a hind limb or a cephalic vein inside a forelimb, and placed into a heparin sodium anticoagulation tube. Main pharmacokinetic parameters such as AUC0-t, AUC0-∞, and t1/2 were calculated using a Phoenix WinNonlin 8.0 software.
(§7) Oral administration group 1: A required amount of C66 substance was weighed, and an appropriate amount of 1% CMC-Na was added to prepare a 0.6 mg/mL suspension.
(§8) Oral administration group 2: A required amount of C66 solid dispersion was weighed, and an appropriate amount of 1% CMC-Na was added to prepare a 0.6 mg/mL suspension.
(§9) Intravenous injection group: A required amount of C66 substance was weighed and dissolved in a solution containing 5% DMSO+10% polyethylene glycol-15 hydroxystearate+85% (20% 2-hydroxypropyl-β-cyclodextrin) to prepare a 1 mg/mL clear solution.

[2] = male, Beagle, dog, in vivo
Protocol: as §3, §4, §5, §6, §7, §8, §9

[3] = Cumulative dissolution of pulverized C66 substance in surfactant aqueous solutions; type: physicochemical; conditions: 60 min
Protocol: None of them reached the quality control requirement that the cumulative dissolution rate could be equal to or greater than 85% in 30 min-60 min.

[4] = Content determination after acceleration storage; type: physicochemical; conditions: C66 substance Batch C66-S-ZS-03-09, comparison
Protocol: (§1) Acceleration test conditions: aluminum foil bag packaging, sealed, 40±2° C., 75%±5% RH, sample placement;
(§2) Samples: Solid dispersions obtained in Examples 1, 2, and 3.

[5] = Saturated concentration of C66 in SDS and Tween 80 solutions; type: physicochemical
Excerpt: The inventors also investigated the solubility of C66 in sodium dodecyl sulfate (SDS) and Tween 80 (T80). According to the recommended usage of surfactants specified in Handbook of Pharmaceutical Excipients, and recommendations from the National Medical Products Administration of China and the U.S. Food and Drug Administration (FDA), a proportion of surfactants in the solution is 1%-3%.

[6] = Solubility of C66 in buffer solutions of different pH (37° C. shaker 24 hours, HPLC); type: physicochemical; conditions: buffer solutions pH 1.0, 1.2, 2.0, 4.0, 5.0, 6.0, 6.8, 7.4
Protocol: In addition, the inventors also prepared a series of buffer solutions (pH 1.0, pH 1.2, pH 2.0, pH 4.0, pH 5.0, pH 6.0, pH 6.8, and pH 7.4) according to the recommended conditions of the Pharmacopoeia, to investigate the solubility of C66 under different pH conditions. Excess C66 powder was added to each of the solutions to obtain a mixture, the mixture was shaken in a 37° C. shaker for 24 hours. The C66 concentration was then measured using high-performance liquid chromatography.

[7] = Related substances after acceleration storage; type: physicochemical; conditions: C66 substance Batch C66-S-ZS-03-09, comparison
Protocol: as §1, §2

[8] = Permeability of C66 (previous studies); type: in vitro ADME

Solubility of C66 ([1]; Ethanol (95%)): Slightly soluble
Solubility of C66 ([1]; Hydrochloric acid solution with a pH of 1.0): Almost insoluble or insoluble
Solubility of C66 ([1]; Phosphate buffer with a pH of 6.8): Almost insoluble or insoluble
Solubility of C66 ([1]; Purified water): Almost insoluble or insoluble
water solubility ([1]; previous studies): poor
AUC(0-t) (in vivo; iv, 1 mg/kg, AUC0-t): 162 ng·h/mL
AUC(0-t) (in vivo; iv, 1 mg/kg, AUC0-t Mean): 148 ng·h/mL
AUC(0-inf) (in vivo; iv, 1 mg/kg, AUC0-∞): 163 ng·h/mL
AUC(0-inf) (in vivo; iv, 1 mg/kg, AUC0-∞ Mean): 149 ng·h/mL
Cmax (in vivo; iv, 1 mg/kg, Cmax): 334 ng/mL
Cmax (in vivo; iv, 1 mg/kg, Cmax Mean): 348 ng/mL
MRT last (in vivo; iv, 1 mg/kg, MRTlast): 41 min
MRT last (in vivo; iv, 1 mg/kg, MRTlast Mean): 35.9 min
Tmax (in vivo; iv, 1 mg/kg, Tmax): 4.98 min
Tmax (in vivo; iv, 1 mg/kg, Tmax Mean): 4.98 min
half-life (in vivo; iv, 1 mg/kg, half-life (t1/2)): ~30 min
half-life (in vivo; iv, 1 mg/kg, t1/2): 33.7 min
half-life (in vivo; iv, 1 mg/kg, t1/2 Mean): 30.4 min
AUC(0-t) (in vivo; po, 3 mg/kg, AUC0-t Mean): 31.8 ng·h/mL
AUC(0-inf) (in vivo; po, 3 mg/kg, AUC0-∞ Mean): 35.8 ng·h/mL
Cmax (in vivo; po, 3 mg/kg, Cmax Mean): 15.8 ng/mL
MRT last (in vivo; po, 3 mg/kg, MRTlast): 113 min
MRT last (in vivo; po, 3 mg/kg, MRTlast Mean): 103 min
Tmax (in vivo; po, 3 mg/kg, Tmax): 120 min
Tmax (in vivo; po, 3 mg/kg, Tmax Mean): 90 min
half-life (in vivo; po, 3 mg/kg, half-life (t1/2)): ~60 min
half-life (in vivo; po, 3 mg/kg, t1/2 Mean): 53.5 min
Tmax (in vivo; po, 3 mg/kg, time to reach peak concentration (Tmax)): ~60 min
Absolute bioavailability (AUC0-t) [2]: 7.16%
ratio of AUC0-t to AUC0-∞ ([2]; iv, 1 mg/kg): 99%
Relative bioavailability (AUC0-t) ([2]; po, 3 mg/kg): 15.02%
ratio of AUC0-t to AUC0-∞ ([2]; po, 3 mg/kg): 88%
cumulative dissolution rate ([3]; 3% sodium dodecyl sulfate aqueous solution, particle size D0.9<15 μm): 25.3%
maximum cumulative dissolution rate ([3]; different concentrations of CTAB aqueous solution): 18.9%
cumulative dissolution rate ([3]; different concentrations of triton X-100 aqueous solution): 26.3%
Content [4]: 98.5%
Saturated concentration of C66 ([5]; 1% SDS solution): 5.158 µg/mL
Saturated concentration of C66 ([5]; 1% Tween 80 solution): 1.410 µg/mL
Saturated concentration of C66 ([5]; 2% SDS solution): 9.046 µg/mL
Saturated concentration of C66 ([5]; 2% Tween 80 solution): 3.385 µg/mL
Saturated concentration of C66 ([5]; 3% SDS solution): 22.484 µg/mL
Saturated concentration of C66 ([5]; 3% Tween 80 solution): 15.231 µg/mL
solubility under different pH conditions [6]: not dissolved
Isomer [7]: 0.038%
Other largest unknown impurities [7]: 0.025%
Process impurities 1 [7]: 0.188%
Process impurities 2 [7]: 0.385%
permeability [8]: good
SMILES: O=C1/C(=C/c2ccccc2C(F)(F)F)CCC/C1=C\c1ccccc1C(F)(F)F [Example C66]
